In brackets after ≈: the same amount, converted by molar mass.
System: KB
Assay: Cytotoxicity against human KB cells
Type: functional
Settings: read-out: ED50 (the source's name)

Q: Which EC50 does the source give for CC(=O)OC[C@]12[C@H](OC(=O)c3ccccc3)[C@@H](OC(C)=O)[C@@H]3[C@@H](OC(C)=O)[C@@]14O[C@@]3(C)COC(=O)c1cccnc1[C@H](C)[C@H](C)C(=O)O[C@@H]([C@H](OC(=O)c1ccc(=O)n(C)c1)[C@@H]2OC(C)=O)[C@@]4(C)O [EMARGINATINE B] here?
A: Its EC50 is 0.4 µg/mL (≈ 0.416 µM).

Q: With CC(=O)OC[C@]12[C@H](OC(C)=O)[C@H](OC(C)=O)[C@@H]3[C@@H](OC(C)=O)[C@@]14O[C@@]3(C)COC(=O)c1cccnc1[C@H](C)[C@H](C)C(=O)O[C@@H]([C@H](OC(=O)c1ccc(=O)n(C)c1)[C@@H]2OC(C)=O)[C@@]4(C)O [EMARGINATINE A] as the molecule, how does the EC50 read?
A: Its EC50 is 4 µg/mL (≈ 4.45 µM).

— ChEMBL document CHEMBL1151148, “Antitumor agents, 112. Emarginatine B, a novel potent cytotoxic sesquiterpene pyridine alkaloid from Maytenus emarginata” (1990)
